Results from ChEMBL document CHEMBL1125390, “Design and synthesis of novel 6,7-imidazotetrahydroquinoline inhibitors of thymidylate synthase using iterative protein crystal structure analysis” (J Med Chem, 1992).

Key:
[1] = test system: CCRF-CEM; experiment: Compound was tested for the inhibition of human CCRF-CEM leukemia cell growth
[2] = test system: GC3M(-); experiment: Compound was tested for the inhibition of thymidine kinase deficient human adenocarcinoma GC3M(-) cell growth
[3] = test system: L1210; experiment: Compound was tested for the inhibition of mouse L1210 leukemia cell growth
[4] = test system: GC3M(-); experiment: Compound was evaluated for cellular growth inhibition in thymidine kinase deficient human adenocarcinoma GC3M(-) cell line
[5] = target: Thymidylate synthase (Escherichia coli, UniProt C3SWJ7)
Thymidylate synthase, sequence (C3SWJ7 whole entry): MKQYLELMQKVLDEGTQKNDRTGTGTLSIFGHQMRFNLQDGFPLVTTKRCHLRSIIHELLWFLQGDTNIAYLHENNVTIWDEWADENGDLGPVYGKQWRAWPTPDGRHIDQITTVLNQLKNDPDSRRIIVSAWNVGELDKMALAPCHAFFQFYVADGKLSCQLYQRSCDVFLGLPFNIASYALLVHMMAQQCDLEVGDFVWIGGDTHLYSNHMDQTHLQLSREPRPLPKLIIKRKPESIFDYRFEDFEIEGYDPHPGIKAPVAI
Description: Inhibition of Escherichia coli Thymidylate synthase (TS)

SMILES | IC50 [1] | IC50 [2] | IC50 [3] | IC50 [4] | Ki [5]
Nc1nc2cc3c(cc2[nH]1)N(Cc1ccc(S(=O)(=O)N2CCOCC2)cc1)CCC3 | 4 µM | 8.6 µM | 4 µM |  | 
Nc1nc2cc3c(cc2[nH]1)N(Cc1ccc(C(=O)NC(CCC(=O)O)C(=O)O)cc1)CCC3 (configuration not stated) | 40 µM |  | 20 µM | > 50 µM | 
CNc1nc2cc3c(cc2[nH]1)N(Cc1ccc(S(=O)(=O)c2ccccc2)cc1)CCC3 | 3.3 µM | > 5 µM | 3 µM |  | 8.5 µM
COc1ccc(S(=O)(=O)c2ccc(CN3CCCc4cc5nc(C)[nH]c5cc43)cc2)cc1 | 8 µM | 4.1 µM | 2.8 µM |  | 1.3 µM
Nc1nc2cc3c(cc2[nH]1)N(Cc1ccc(S(=O)(=O)c2ccc(O)cc2)cc1)CCC3 | 22 µM |  | 12 µM | > 50 µM | 
COc1ccc(S(=O)(=O)c2ccc(CN3CCCc4cc5c(cc43)nc(N)n5C)cc2)cc1 | 0.9 µM | 3 µM | 0.5 µM |  | 0.5 µM
COc1ccc(S(=O)(=O)c2ccc(CN3CCCc4cc5[nH]c(N)nc5cc43)cc2)cc1 | 5.1 µM | 9 µM | 2.6 µM |  | 
CSc1nc2cc3c(cc2[nH]1)N(Cc1ccc(S(=O)(=O)c2ccccc2)cc1)CCC3 | > 10 µM | > 10 µM | > 10 µM |  | > 3 µM
Nc1nc2cc3c(cc2[nH]1)N(Cc1ccc(S(=O)(=O)c2ccccc2)cc1)CCC3 |  | > 5 µM |  |  | 
COc1ccc(S(=O)(=O)c2ccc(CN3CCCc4cc5c(cc43)nc(C)n5C)cc2)cc1 | 1.8 µM | > 5 µM | 1.05 µM |  | 5.2 µM
Nc1nc2cc3c(cc2[nH]1)CCCC3Sc1ccc(S(=O)(=O)c2ccccc2)cc1 (configuration not stated) | > 10 µM | > 10 µM | 7.5 µM |  | 
O=S(=O)(c1ccc(CN2CCCc3cc4[nH]cnc4cc32)cc1)N1CCNCC1 |  | 43 µM |  |  | 
Nc1nc2cc3c(cc2[nH]1)N(Cc1ccc2cc(CO)ccc2c1)CCC3 | > 5 µM | > 5 µM | 3.1 µM |  | 
Nc1nc2cc3c(cc2[nH]1)N(Cc1ccc(S(=O)(=O)N2CCNCC2)cc1)CCC3 |  | > 50 µM | 2 µM |  | 
